The source of these data is ChEMBL document CHEMBL1201862, “PubChem BioAssay data set” (2004).

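Dose response: 5 concentrations. Exposure: 48 h. Format: 96-well plates. Endpoint: linear interpolation; highest concentration if not reached. GI50 marks 50% less growth.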 Activity calls are given as the source filed them. Cut-off read from the data, not from the text of the source: active = GI50 up to about 1.1 µM and inactive = higher. Some results are limits rather than exact numbers.

Some test systems named below: A549; COLO 205; DLD-1; HOP-18; M14; NCI-H522; SF-268; SF-539; SK-MEL-2; SNB-75; SR; TK-10; U-251; UACC-257; IGROV-1; SNB-78.
Holding throughout (assay): NCI tumour cell line growth inhibition, 48 h

With `CC(C)(C)c1cc(C(=O)O)c2c(c1)C(=O)OC2(c1ccccc1)c1ccccc1C(=O)O` (configuration not stated), the GI50 in the experiment on A549 is > 100 µM (inactive); with COLO 205, 41.1 µM (inactive); in the experiment on DLD-1 it was > 100 µM (inactive); with HOP-18, > 100 µM (inactive); in the experiment with M14 it was > 100 µM (inactive); in the experiment on NCI-H522, 0.206 µM (active). Besides, the GI50 was > 100 µM (inactive) in the experiment with SF-268; > 100 µM (inactive) with SF-539; > 100 µM (inactive) in the experiment on SK-MEL-2; 90.4 µM (inactive) with SNB-75; > 100 µM (inactive) in the experiment with SR; > 100 µM (inactive) in the experiment on TK-10. Besides, the GI50 in the experiment with U-251 is 0.0448 µM (active); with UACC-257, > 100 µM (inactive).

As for `CNC(=S)NNC(=O)c1c(C)nc2sccn12`, the GI50 was > 100 µM (inactive) in the experiment with A549; > 100 µM (inactive) with COLO 205; > 100 µM (inactive) with DLD-1; 0.414 µM (active) with HOP-18; > 100 µM (inactive) with IGROV-1; > 100 µM (inactive) with NCI-H522. In addition, the GI50 in the experiment with SF-268, in the experiment with SF-539, in the experiment with SK-MEL-2, with SR, with TK-10 and with U-251 was > 100 µM (inactive) throughout. Also, in the experiment on UACC-257, the GI50 is > 100 µM (inactive).

In the case of `CCN/C(=N\Nc1ccc([N+](=O)[O-])cc1)P(=O)(OC(C)C)OC(C)C`, the GI50 in the experiment with A549, in the experiment with COLO 205, in the experiment on DLD-1, in the experiment on M14, with NCI-H522 and in the experiment on SF-268 was > 100 µM (inactive) each time. The GI50 in the experiment on SF-539 was > 100 µM (inactive); in the experiment on SK-MEL-2, > 100 µM (inactive); with SNB-75, 49.9 µM (inactive); in the experiment with SNB-78, > 100 µM (inactive); in the experiment on SR, > 100 µM (inactive); in the experiment with TK-10, > 100 µM (inactive). The GI50 is > 100 µM (inactive) with U-251 and 68.1 µM (inactive) with UACC-257.

For `CC12CCC(CC1)C(C)(C)O2` [EUCALYPTOL], the GI50 is 18.6 µM (inactive) with COLO 205; 25.9 µM (inactive) in the experiment with DLD-1; 30.4 µM (inactive) with IGROV-1; > 100 µM (inactive) with M14; 10.1 µM (inactive) in the experiment on NCI-H522; 42 µM (inactive) in the experiment on SF-268. Further, the GI50 in the experiment on SF-539 is 18.3 µM (inactive); in the experiment on SK-MEL-2 it was 47.3 µM (inactive); in the experiment with SNB-75, 39.3 µM (inactive); with SNB-78, 67.6 µM (inactive); in the experiment with SR, > 100 µM (inactive); with TK-10, > 100 µM (inactive). Also, the results for the GI50 in the experiment on U-251 and with UACC-257 were 29.5 µM (inactive) and 16.9 µM (inactive), respectively.

As to `O=C(OCC1CO1)c1cccs1` (configuration not stated), the GI50 was > 100 µM (inactive) with A549; > 100 µM (inactive) in the experiment with COLO 205; > 100 µM (inactive) in the experiment on DLD-1; > 100 µM (inactive) in the experiment with IGROV-1; > 100 µM (inactive) in the experiment on M14; 17 µM (inactive) with NCI-H522. Also, the GI50 in the experiment on SF-268 was > 100 µM (inactive); with SK-MEL-2, > 100 µM (inactive); in the experiment with SNB-75 it was 37 µM (inactive); in the experiment on SNB-78 it was > 100 µM (inactive); in the experiment with TK-10, > 100 µM (inactive); in the experiment with UACC-257 it was > 100 µM (inactive).

With `CC[C@@]12N=C(N(C)C)C[C@]1(O)ON=C2C`, the GI50 in the experiment with A549, with COLO 205, with DLD-1, in the experiment with HOP-18, in the experiment on IGROV-1 and in the experiment on M14 was > 100 µM (inactive) in each case. In addition, the GI50 in the experiment with NCI-H522, in the experiment on SF-268, with SF-539, in the experiment with SK-MEL-2, with SNB-75 and in the experiment on SR was > 100 µM (inactive) each time. Besides, the GI50 in the experiment on TK-10 and in the experiment on U-251 was > 100 µM (inactive) in each case.

With `Cc1nc2ccccc2c(=O)n1/N=C(\N=N\c1ccccc1Cl)c1ccccc1`, the GI50 in the experiment on A549 was 48.6 µM (inactive); in the experiment on COLO 205, 21.5 µM (inactive); in the experiment with DLD-1, 29.1 µM (inactive); with HOP-18 it was 27.5 µM (inactive); in the experiment with IGROV-1, 19.4 µM (inactive); with M14, 18.1 µM (inactive). Further, the GI50 in the experiment on NCI-H522 was 19.1 µM (inactive); in the experiment on SF-268, 46.3 µM (inactive); with SF-539, 18.7 µM (inactive); in the experiment with TK-10 it was 60.5 µM (inactive); in the experiment with U-251, 26.7 µM (inactive).

On to `O=C(/C=C1\Nc2ccccc2C(=O)N1c1ccc(Cl)cc1)c1ccncc1`, for which the GI50 in the experiment with A549, in the experiment on COLO 205, with DLD-1, with M14, in the experiment with NCI-H522 and with SF-268 was > 100 µM (inactive) in each case. Besides, the GI50 was > 100 µM (inactive) in the experiment on SK-MEL-2; 20.7 µM (inactive) in the experiment on SNB-75; > 100 µM (inactive) with SNB-78; > 100 µM (inactive) with SR; > 100 µM (inactive) with TK-10; > 100 µM (inactive) in the experiment on U-251. In the experiment with UACC-257, the GI50 was > 100 µM (inactive).

As for `O=C1C2C=CC(C2)C(c2ccc(O)cc2)N1O` (configuration not stated), the GI50 in the experiment with A549, in the experiment on COLO 205, in the experiment with DLD-1, with IGROV-1, in the experiment on M14 and with NCI-H522 was > 100 µM (inactive) in each case. In addition, the GI50 in the experiment on SF-268, with SK-MEL-2, in the experiment with SNB-75, with SNB-78, in the experiment with SR and with TK-10 was > 100 µM (inactive) each time. For the same compound, the GI50 in the experiment on U-251 and in the experiment with UACC-257 was > 100 µM (inactive) each time.

Take `COC(=O)[C@@]12C3=NO[C@]1(C(=O)OC)C(O[Si](C)(C)C(C)(C)C)[C@H]1OC(C)(C)O[C@H]1[C@@H]2C(OCc1ccccc1)CC3` (some centres not stated): the GI50 was 34 µM (inactive) in the experiment on A549; 57.1 µM (inactive) in the experiment on COLO 205; 85.1 µM (inactive) in the experiment with DLD-1; > 100 µM (inactive) in the experiment on HOP-18; 42.7 µM (inactive) in the experiment with IGROV-1; 26.9 µM (inactive) with M14. Further, the GI50 with SF-539 is 59.2 µM (inactive); in the experiment with SK-MEL-2, 28.8 µM (inactive); with SNB-75, 17.9 µM (inactive); in the experiment on TK-10, 84.1 µM (inactive); in the experiment with U-251, 43.5 µM (inactive).

`c1ccc(C2=NN3CN(N2)c2ccccc2OCCCOc2ccccc23)cc1`: the GI50 in the experiment with A549 was > 100 µM (inactive); in the experiment on COLO 205 it was > 100 µM (inactive); in the experiment with IGROV-1, > 100 µM (inactive); in the experiment with M14 it was > 100 µM (inactive); in the experiment on NCI-H522, 34.7 µM (inactive); in the experiment on SF-268 it was > 100 µM (inactive). The GI50 is > 100 µM (inactive) in the experiment on SF-539; > 100 µM (inactive) in the experiment on SK-MEL-2; 88.5 µM (inactive) with SNB-75; > 100 µM (inactive) with SNB-78; 92.7 µM (inactive) in the experiment with SR; > 100 µM (inactive) in the experiment with TK-10. In addition, the GI50 in the experiment with U-251 was > 100 µM (inactive).

With `NC1=C(NC(=O)Cc2ccc(F)cc2)C(=O)c2ccccc2C1=O`, the GI50 with A549 is 85.3 µM (inactive); in the experiment with COLO 205, 68.2 µM (inactive); in the experiment on DLD-1 it was > 33.3 µM (inactive); with IGROV-1, 23.4 µM (inactive); in the experiment on M14, 43.8 µM (inactive); in the experiment on NCI-H522 it was 22.7 µM (inactive). Also, the GI50 is 39.7 µM (inactive) in the experiment with SF-268; > 78 µM (inactive) in the experiment on SF-539; > 60 µM (inactive) in the experiment on SK-MEL-2; 29.2 µM (inactive) in the experiment with SNB-75; 26.1 µM (inactive) in the experiment with SNB-78; > 76.4 µM (inactive) in the experiment on SR. Also, the GI50 is 30.9 µM (inactive) in the experiment on TK-10, 13.9 µM (inactive) with U-251 and 79.3 µM (inactive) in the experiment on UACC-257.

On to `COC(=O)C1Cc2c([nH]c3ccccc23)C(c2ccccc2O)N1` (configuration not stated), for which the GI50 with A549 was 43 µM (inactive); in the experiment with COLO 205, 35.3 µM (inactive); in the experiment with DLD-1, 42.9 µM (inactive); in the experiment with HOP-18, > 100 µM (inactive); in the experiment on IGROV-1, 33.8 µM (inactive); with M14 it was 93.8 µM (inactive). For the same compound, the GI50 in the experiment on NCI-H522 was 32.4 µM (inactive); in the experiment on SF-539, 34.1 µM (inactive); in the experiment with SK-MEL-2, > 100 µM (inactive); with SNB-75 it was 88.1 µM (inactive); with SR it was > 100 µM (inactive); in the experiment with TK-10, 52 µM (inactive). Besides, the GI50 was > 100 µM (inactive) in the experiment on U-251 and 84.1 µM (inactive) with UACC-257.

Consider `Cc1cnc2c(c1)C(=O)C1=C(OC(C)(C)CC1O)C2=O` (configuration not stated), for which the GI50 in the experiment with A549 was 16.2 µM (inactive); in the experiment on COLO 205, 16.7 µM (inactive); in the experiment with DLD-1, 16 µM (inactive); with HOP-18, 15.8 µM (inactive); with IGROV-1, 15.2 µM (inactive); in the experiment with M14 it was 16.4 µM (inactive). In addition, the GI50 with NCI-H522 is 15.8 µM (inactive); in the experiment on SF-268, 14.9 µM (inactive); with SF-539, 16.4 µM (inactive); in the experiment on SK-MEL-2, > 100 µM (inactive); with SNB-75 it was 14.4 µM (inactive); in the experiment on SR, 7.89 µM (inactive). In addition, the GI50 in the experiment on TK-10 was 18.5 µM (inactive); with U-251 it was 15.2 µM (inactive); in the experiment with UACC-257 it was 13.3 µM (inactive).
